Measurements as given in publication PMC11521309, “A novel 4-aminoquinoline chemotype with multistage antimalarial activity and lack of cross-resistance with PfCRT and PfMDR1 mutants” (PLOS Pathogens, 2024).
Values joined by “and” are separate entries in the source; they are usually repeats but may differ in a detail not shown here. Identical values can stand only once. Like-named read-outs stand apart in the source and are kept apart here.

What was measured:
[1] = tested on: Hz formation in ABS P. falciparum 3D7 parasites; experiment: Cellular heme fractionation assay; type: cell-based, Plasmodium falciparum; details: for %Hb / %Heme / %Hemozoin / Hb Fe (fg/troph) / Heme Fe (fg/troph) / Hemozoin Fe (fg/troph) / Total Fe (fg/troph): rep 1-4 and Mean
Protocol: A heme fractionation assay was used to measure the inhibition of Hz formation in cultured ABS P. falciparum 3D7 parasites as previously described. […] Late trophozoites were harvested after 32 hours of incubation by lysing RBCs with 0.05% saponin followed by multiple washes with 1 × PBS (pH 7.5) to remove any residual traces of hemoglobin. The parasite pellet was resuspended in PBS and the total number of trophozoites isolated was quantified using flow cytometry. Contents of the trophozoite pellet were released by hypotonic lysis and sonication. After centrifugation, treatments with HEPES buffer (pH 7.4), sodium dodecyl sulfate, pyridine, and NaOH, allowed us to separate the fractions corresponding to the different heme species of interest. A microplate reader was employed to measure the UV-visible spectrum of each heme fraction as a Fe(III)heme-pyridine complex. Fractions of undigested hemoglobin, “free” heme, and Hz were quantified using a heme standard curve based on the mass of each heme-Fe species per mature trophozoite (fg/cell), obtained by dividing the total amount of each heme species by the corresponding number of parasites in that fraction as determined by flow cytometry. Statistical comparisons and analyses for trends employed Students’ t-tests (GraphPad Prism version 9).

[2] = tested on: P. falciparum 3D7 ABS parasites; experiment: ABS parasite survival assay, 72 h, flow cytometry; type: cell-based; details: Plasmodium falciparum, 3D7, ABS parasites, N = 3; read-out: IC50 3D7
Protocol: (§1) P. falciparum ABS parasites were cultured at 3% hematocrit in human O^+ RBCs in RPMI-1640 media supplemented with 25 mM HEPES, 50 mg/L hypoxanthine, 2 mM L-glutamine, 0.21% sodium bicarbonate, 0.5% (w/v) AlbuMAXII (Invitrogen) and 10 μg/mL gentamycin. Culture flasks were kept in modular incubator chambers (Billups-Rothenberg) in a 5% O2, 5% CO2, and 90% N2 atmosphere at 37°C. Synchronized ring-stage parasites were obtained by two consecutive rounds of treatment with 5% D-sorbitol in 48-hour intervals. […] This was done by exposing cultures at 1% hematocrit and 0.3% parasitemia in 96-well plates in the presence of drugs in a two-fold 10 or 12-point serial dilution in duplicate along with drug-free controls. After a 72-hour incubation, parasite survival was assessed by flow cytometry on an iQue flow cytometer (Sartorius) using SYBR Green and MitoTracker Deep Red FM (Life Technologies) as nuclear stain and vital dye, respectively. Parasite survival was determined as a percentage relative to drug-free control. IC50 values were interpolated from log concentration versus response curves in Prism 9 (GraphPad Prism Software Inc.).

[3] = tested on: P. falciparum Dd2 ABS parasites; experiment: ABS parasite survival assay, 72 h, flow cytometry; type: cell-based; details: Plasmodium falciparum, DD2, ABS parasites, N = 3; read-out: IC50 Dd2
Protocol: as §1

[4] = MTT cytotoxicity assay, 72 h; type: cell-based, monkey; details: monkey, MTT, 72 h, N = 3
Protocol: (§2) Human hepatoma (HepG2) and fibroblast-like monkey kidney cells (COS-7) were cultured in Dulbecco’s Modified Eagle Medium supplemented with 10% heat-inactivated fetal bovine serum and gentamycin (40 mg/L) at 37°C in a 5% CO2 atmosphere. Cytotoxicity of test compounds was measured by metabolic reduction of mitochondrial enzymes using the MTT assay (3-[4,5-dimethyl-thiazol-2-yl]-2,5-diphenyltetrazolium chloride). Cells were seeded at 10^5 cells/well in 96-well plates and incubated for 72 hours in the presence of a 2-fold 12-point serial dilution of drugs along with drug-free controls. After adding 15 μL of MTT (5 mg/mL) to the wells, plates were centrifuged at 317g for 5 minutes and the pellet was resuspended in isopropanol. Absorbance was measured at 570 nm (CLARIOStar, Labtech BMG). Cell viability was determined by formazan production, and was expressed as a percentage of untreated control wells.

COS-7 cells = experiment: MTT cytotoxicity assay, 72 h; type: cell-based, monkey
Protocol: as §2

[5] = MTT cytotoxicity assay, 72 h; type: cell-based, Human; details: human, MTT, 72 h, N = 3
Protocol: as §2

HepG2 cells = experiment: MTT cytotoxicity assay, 72 h; type: cell-based, Human
Protocol: as §2

[6] = 0.5–3.0 × IC50 vs untreated control

Structure (SMILES): C[C@H]1Cc2c([nH]c3cc(Cl)c(F)cc23)[C@@]2(N1)C(=O)Nc1ccc(Cl)cc12 [KAE609, cipargamin]
- %Hb ([1]; 0.5x): 3.6542% and 7.0007% and 6.1505% and 3.0130%
- %Heme ([1]; 0.5x): 5.3042% and 5.9396% and 6.0562% and 6.0905%
- %Hemozoin ([1]; 0.5x): 91.0416% and 87.0597% and 87.7934% and 90.8965%
- Hb Fe (fg/troph) ([1]; 0.5x): 2.0363 fg/troph and 3.5589 fg/troph and 3.2475 fg/troph and 1.8499 fg/troph
- Heme Fe (fg/troph) ([1]; 0.5x): 2.9557 fg/troph and 3.0195 fg/troph and 3.1977 fg/troph and 3.7394 fg/troph
- Hemozoin Fe (fg/troph) ([1]; 0.5x): 50.7323 fg/troph and 44.2576 fg/troph and 46.3552 fg/troph and 55.8088 fg/troph
- Total Fe (fg/troph) ([1]; 0.5x): 55.72 fg/troph and 50.84 fg/troph and 52.80 fg/troph and 61.40 fg/troph
- effect on Hz levels [1, 6]: did not affect Hz formation
- effect on undigested Hb [1, 6]: subtle yet significant increment in Hb levels observed under 2 and 2.5 × IC50
- %Hb ([1]; 1x): 5.1693% and 5.1920% and 5.0902% and 5.1212%
- %Heme ([1]; 1x): 5.7735% and 5.8398% and 5.6460% and 5.8813%
- %Hemozoin ([1]; 1x): 89.0573% and 88.9682% and 89.2638% and 88.9975%
- Hb Fe (fg/troph) ([1]; 1x): 2.9437 fg/troph and 3.1428 fg/troph and 2.7576 fg/troph and 3.0371 fg/troph
- Heme Fe (fg/troph) ([1]; 1x): 3.2877 fg/troph and 3.5349 fg/troph and 3.0588 fg/troph and 3.4878 fg/troph
- Hemozoin Fe (fg/troph) ([1]; 1x): 50.7140 fg/troph and 53.8534 fg/troph and 48.3591 fg/troph and 52.7792 fg/troph
- %Hb ([1]; 2x): 6.5332% and 6.7594% and 6.3629% and 6.9166%
- %Heme ([1]; 2x): 5.4724% and 5.9940% and 4.2854% and 5.7076%
- %Hemozoin ([1]; 2x): 87.9944% and 87.2465% and 89.3517% and 87.3758%
- Hb Fe (fg/troph) ([1]; 2x): 4.0073 fg/troph and 4.4606 fg/troph and 3.7570 fg/troph and 4.7143 fg/troph
- Heme Fe (fg/troph) ([1]; 2x): 3.3567 fg/troph and 3.9555 fg/troph and 2.5303 fg/troph and 3.8902 fg/troph
- Hemozoin Fe (fg/troph) ([1]; 2x): 53.9742 fg/troph and 57.5747 fg/troph and 52.7581 fg/troph and 59.5545 fg/troph
- Total Fe (fg/troph) ([1]; 2x): 61.34 fg/troph and 65.99 fg/troph and 59.05 fg/troph and 68.16 fg/troph
- %Hb ([1]; 2.5x): 5.1788% and 7.1992% and 6.5284% and 7.3663%
- %Heme ([1]; 2.5x): 6.6682% and 5.2565% and 5.5507% and 5.3264%
- %Hemozoin ([1]; 2.5x): 88.1530% and 87.5443% and 87.9209% and 87.3073%
- Hb Fe (fg/troph) ([1]; 2.5x): 2.9541 fg/troph and 4.0082 fg/troph and 4.1259 fg/troph and 4.4913 fg/troph
- Heme Fe (fg/troph) ([1]; 2.5x): 3.8037 fg/troph and 2.9266 fg/troph and 3.5080 fg/troph and 3.2476 fg/troph
- Hemozoin Fe (fg/troph) ([1]; 2.5x): 50.2849 fg/troph and 48.7406 fg/troph and 55.5658 fg/troph and 53.2328 fg/troph
- Total Fe (fg/troph) ([1]; 2.5x): 57.04 fg/troph and 55.68 fg/troph and 63.20 fg/troph and 60.97 fg/troph
- %Hb ([1]; 3x): 3.4597% and 3.9960% and 5.9128% and 5.9841%
- %Heme ([1]; 3x): 6.5997% and 5.1160% and 5.1737% and 5.1489%
- %Hemozoin ([1]; 3x): 89.9406% and 90.8880% and 88.9135% and 88.8671%
- Heme Fe (fg/troph) ([1]; 3x): 3.6368 fg/troph and 3.2102 fg/troph and 3.3952 fg/troph and 3.4079 fg/troph
- Hemozoin Fe (fg/troph) ([1]; 3x): 49.5627 fg/troph and 57.0293 fg/troph and 58.3496 fg/troph and 58.8192 fg/troph

Structure (SMILES): COc1cccc(Nc2ccnc3ccccc23)c1 [LDT-617]
- IC50 [2]: 1.8 ± 0.1 µM
- IC50 [3]: 1.9 ± 0.2 µM
- CC50 at 72 h ([4]; COS-7 cells): 51.2 ± 6.6 µM
- SI (CC50 COS-7 / IC50 3D7) (COS-7 cells): 28.9
- CC50 at 72 h ([5]; HepG2 cells): 40.8 ± 12.2 µM
- SI (CC50 HepG2 / IC50 3D7) (HepG2 cells): 23.1

Structure (SMILES): COc1ccc(Nc2ccnc3ccccc23)cc1OC [LDT-618]
- IC50 [2]: 1.8 ± 0.1 µM
- IC50 [3]: 1.9 ± 0.2 µM
- CC50 at 72 h ([4]; COS-7 cells): > 100 µM
- SI (CC50 COS-7 / IC50 3D7) (COS-7 cells): > 56.5
- CC50 at 72 h ([5]; HepG2 cells): 29.8 ± 9.7 µM
- SI (CC50 HepG2 / IC50 3D7) (HepG2 cells): 16.8

Structure (SMILES): COc1cc(Nc2ccnc3ccc(Br)cc23)cc(OC)c1OC [LDT-619]
- IC50 [2]: > 5 µM
- IC50 [3]: > 5 µM
- CC50 at 72 h ([4]; read-out: CC50 COS-7): 3.3 ± 0.3 µM
- SI (CC50 COS-7 / IC50 3D7) (COS-7 cells): 0.7
- CC50 at 72 h ([5]; read-out: CC50 HepG2): 0.3 ± 0.04 µM
- SI (CC50 HepG2 / IC50 3D7) (HepG2 cells): 0.1

Structure (SMILES): CCOc1cc2nccc(Nc3cc(OC)c(OC)c(OC)c3)c2cc1OCC [LDT-620]
- IC50 [2]: 0.4 ± 0.05 µM
- IC50 [3]: 0.5 ± 0.1 µM
- CC50 at 72 h ([4]; COS-7 cells): 2.6 ± 0.3 µM
- SI (CC50 COS-7 / IC50 3D7) (COS-7 cells): 6.3
- CC50 at 72 h ([5]; HepG2 cells): 1.6 ± 0.1 µM
- SI (CC50 HepG2 / IC50 3D7) (HepG2 cells): 3.8

Structure (SMILES): COc1cc(Nc2ccnc3ccccc23)cc(OC)c1 [LDT-621]
- IC50 [2]: 2.2 ± 0.1 µM
- IC50 [3]: 2 ± 0.3 µM
- CC50 at 72 h ([4]; COS-7 cells): 6.5 ± 4.2 µM
- SI (CC50 COS-7 / IC50 3D7) (COS-7 cells): 2.8
- CC50 at 72 h ([5]; HepG2 cells): 0.5 ± 0.1 µM
- SI (CC50 HepG2 / IC50 3D7) (HepG2 cells): 0.2
